Experimental data as given in patent US11661404B2, “Prodrug compounds activated by AKR1C3 and their use for treating hyperproliferative disorders” (priority 2018, dated 2023).
Where two headings read alike, the source gives them in different places.

How the values were obtained:
AKR1C3 mixed MCLs = settings: cited from earlier work
[1] = system: wild-type HCT116 colon cancer cells; experiment: Anti-proliferative IC50 under oxic and anoxic conditions; format: cell-based, human; settings: for IC50: Homo sapiens, HCT-116; for Hypoxic Cytotoxicity Ratio (HCR): oxic vs anoxic IC50, HCT116-WT
Description: PR-104A was initially designed and optimised as a hypoxia-selective cytotoxin (Patterson et al, Clinical Cancer Research, 2007, 13, 3922-3932). In the context of an AKR1C3-activated prodrug, this route of activation is considered off-mechanism and may potentially be undesirable, leading to off-target toxicities in a subject. Preferred compounds of the invention have been determined to be substantially resistant to hypoxia-dependent activation and cytotoxicity in wild-type HCT116 colon cancer cells. HCT116 cells were treated with compounds of the invention under either oxic or anoxic conditions and then their degree of anti-proliferative activity determined.
Selected compounds were evaluated for cytotoxic potential (IC50) under anoxic conditions. The same procedures as described above for Examples 9-11 were carried out in a Bactron anoxic chamber (Sheldon Manufacturing Inc) with internal 37° C. incubators where palladium catalyst scrubbed gas (90% N2, 5% H2, 5% CO2) ensured severe anoxia (<0.001% O2) in the whole chamber. All materials required (including cells) were taken into the chamber through two cycles of vacuum and gassing with 100% N2, followed by a single cycle with 5% CO2 and 5% hydrogen in nitrogen. All experimental materials were placed in the anoxic chamber at least 3 days prior to the day required for the experiment in order to remove any traces of residual O2. The medium used for the 96-well plates in the anoxic chamber consisted of α-MEM+10% (v/v) FBS+1% (v/v) additives (1 M β-D-Glucose and 20 mM 2′-Deoxycytidine).

[2] = Solubility by HPLC in water and lactate buffer; format: physicochemical; settings: lactate buffer (pH 4), room temperature
Description: (§1) The solubility and stability of compound 641 was studied by HPLC in lactate buffer (pH 4) and water as the free base and the mesylate salt (641.Ms) at 0° C. and room temperature (RT). […] However, this was improved considerably by formulation as the mesylate salt, producing a solubility of greater than 100 mmol/L in lactate buffer and greater than 70 mmol/L in water. […] This stability was improved considerably by reducing the temperature of the solution to 0° C.

[3] = Stability in solution by HPLC in water and lactate buffer; format: physicochemical; settings: room temperature
Description: as §1

[4] = system: mixed HCT116 colon cancer MCLs containing 5% AKR1C3 over-expressing cells; experiment: High cell density multicellular layer (MCL) assay, bystander cell killing; format: cell-based, human
Description: The MCL model utilised for this evaluation consisted of AKR1C3 overexpressing (activator) cells or non-AKR1C3 expressing (target) cells or a mixture of these two cell types grown in a ratio of 5:95. The mixture of the two distinct cell populations enabled the determination of the extent of the transfer of cytotoxic metabolites from the activator cell to the target cell population.
Plating efficiencies were calculated as the fraction of colonies formed relative to the number of cells seeded. The compound concentrations for 10% survival (C10) of target cells grown without activators (T), targets in co-culture (Tc) and activators in co-culture (Ac) was determined by interpolation. Bystander effect efficiency (BEE) was calculated as (Log C10T−Log C10Tc)/(Log C10T−Log C10Ac), where BEE is the measure of cytotoxic metabolite transfer. In contrast to PR-104A, preferred compounds of the invention have a minimal BEE, reducing off-target side effects from ablation of neighbouring non-AKR1C3 expressing cells.
Millicell-CM membrane inserts were coated in calf-skin collagen type III. The collagen solution was prepared dissolving in sterile 0.01 N HCl to a concentration of 3 mg/mL. The collagen solution was diluted (1:5) in sterile 60% ethanol and 100 μL of this solution was used to coat the membrane inserts and left overnight in a sterile environment to dry.
Prior to adding cells, the inserts were sterilised in 70% ethanol and left to aerate in a sterile environment in order for the ethanol to evaporate. A sterile polyethylene foam ring was placed around each insert to enable subsequent floatation. Single cell suspensions of 1×10^6 cells in a volume of 500 μL was added to each insert. When mixtures of cells were required, 1×10^6 cells of the mixed cell suspension (in 500 μL) were added to each insert. The type of mixed MCLs used in experiments consisted of 95% HCT116^NeoR and 5% HCT116^AKR1C3 cells. The HCT116^NeoR ells were used in this mixture as an AKR1C3 negative cell line which can subsequently be grown in selective medium containing Geneticin (G418), and which enabled discrimination with the AKR1C3 positive cell line (which can be grown in selective medium containing puromycin). The inserts containing cells were placed in a sterile screw-top plastic jar containing 300 mL of α-MEM+10% v/v FBS+1% PSG, with a maximum of 6 inserts in a jar. The inserts were left floating in the medium for 4 hours in a humidified incubator (37° C., 5% CO2) to enable cells to adhere to the collagen coat and then submerged in the medium with a sterile stainless steel grid. Cells were left to grow and form MCLs on the inserts for a period of 3 days by placing the jars in a 37° C. water bath with continuous magnetic stirring of the medium.
Three days after growth of cells as MCLs in inserts, each insert was inspected with an inverted phase contrast microscope to ensure uniform growth of cells. Suitable MCLs were transferred to 25 mL glass vessels containing 10 mL of medium (α-MEM+10% v/v FBS+1% PSG) with the required drug concentrations. Each insert in the glass vessel was held by a stainless steel loop attached to the lid. The vessels were placed in a 37° C. water bath. Ports on the lid of each bottle enabled gassing with the required gas phase. The glass vessels containing the MCL inserts and drug were left in the 37° C. water bath for 5 hours with continuous gassing and magnetic stirring of medium. The gas phase used was 5% CO2:95% O2, with the high oxygen concentration used to minimise bioreductive drug activation by endogenous one-electron reductases.
After the 5 hour incubation, each insert was trypsinised in 0.07% trypsin in PBS for 10 minutes at 37° C. to dissociate the MCL into a single cell suspension. The dissociated cells were incubated for a further 10 minutes in α-MEM containing 10% FBS and 100 μg/ml DNAase I. Cells were then counted on a Z2 Coulter® Particle Count and Size Analyzer and resuspended in fresh medium. […]

[5] = anoxic (<0.001% O2), read-out: HCT116-WT Anti-proliferative IC50 Anoxic
[6] = read-out: HCT116-WT Anti-proliferative IC50 Oxic
[7] = 95% HCT116^NeoR : 5% HCT116^AKR1C3, 5 hours

Structure (SMILES): CN1CCN(C(=O)c2cc([N+](=O)[O-])ccc2N(CCBr)CCBr)CC1 [SN34118, reference compound]
- BEE reported in AKR1C3 mixed MCLs (AKR1C3 mixed MCLs; Silva, MSc Thesis): 52.7%

Structure (SMILES): CN1CCN(S(=O)(=O)c2cc([N+](=O)[O-])ccc2N(CCOS(C)(=O)=O)CCOS(C)(=O)=O)CC1 [Compound 641, ((2-((4-methylpiperazin-1-yl)sulfonyl)-4-nitrophenyl)azanediyl)bis(ethane-2,1-diyl) dimethanesulfonate]
- IC50 [1, 5]: 2.52 µM
- IC50 [1, 6]: 5.91 µM
- Hypoxic Cytotoxicity Ratio (HCR) [1]: 2
- Solubility, Lactate Buffer, RT [2]: 3.4 mM
- Stability (% Parent after 24 hours), Lactate Buffer, RT ([3]; lactate buffer (pH 4)): 54.4%
- half-life ([3]; pH 4, lactate buffer): ~24 h
- shift in the C10 from T to Tc ([4]; 5% AKR1C3-positive cells): 9 fold
- activators in co-culture C10 (Ac) [4, 7]: 0.0054 µM
- targets in co-culture C10 (Tc) [4, 7]: 1.27 µM
- AKR1C3-positive HCT116 cells clonogenically sterilised ([4]; concentrations 0.002 μM to 0.2 μM, FIG. 8): at least 99.9%
- sensitivity of AKR1C3 expressing cells vs AKR1C3-negative cells to clonogenic cell kill (T/Ac) ([4]; high cell density): 2055 fold
- target cell C10 (T), concentration for 10% survival ([4]; target cells grown without activators, 5 hours exposure, clonogenic survival): 11.1 µM

Structure (SMILES): CS(=O)(=O)OCCN(CCBr)c1c(C(=O)NCCO)cc([N+](=O)[O-])cc1[N+](=O)[O-] [PR-104A, 2-((2-bromoethyl)(2-((2-hydroxyethyl)-carbamoyl)-4,6-dinitrophenyl)amino)ethyl methanesulfonate, reference compound]
- IC50 [1, 5]: 2.83 µM
- IC50 [1, 6]: 55.8 µM
- Hypoxic Cytotoxicity Ratio (HCR) [1]: 20
- bystander effect (literature) (AKR1C3 mixed MCLs; Foehrenbacher et al, 2013): substantial bystander effect

Structure (SMILES): CN1CCN(S(=O)(=O)c2cc([N+](=O)[O-])ccc2N(CCBr)CCOS(C)(=O)=O)CC1 [Compound 602, 2-((2-bromoethyl)(2-((4-methylpiperazin-1-yl)sulfonyl)-4-nitrophenyl)amino)ethyl methanesulfonate]
- IC50 [1, 5]: 3.51 µM
- IC50 [1, 6]: 4.26 µM
